Legend:
Conditions in all cases: biochemical, HTRF KinEASE-TK
[1] = target: PDGFRα (Homo sapiens (Human), UniProt P16234); experiment: Inhibition of PDGFRα kinase activity (HTRF KinEASE-TK)
Procedure: (§1) Inhibition of c-Kit, PDGFRα, PDGFRβ, CSFIR and FLT3 Kinase Activity
(§2) Compounds were evaluated to determine the potency with which they inhibit the kinase activity of the following panel of tyrosine kinases: c-Kit (SignalChem, Product #: K06-11BG), PDGFRα (SignalChem, Product #: P12-18G), PDGFRβ (SignalChem, Product #: P13-11G), CSFIR (SignalChem, Product #: C74-11G) and FLT3 (Invitrogen, Product #: PR4666C). Activity was determined as a function of phosphorylated biotinylated TK peptide generated by the transfer of phosphate from ATP as measured by the use of the HTRF KinEASE-TK assay kit (Cisbio, Product #: 62TKOPEJ). Levels of phosphorylated biotinylated TK peptide (Part 61TKOBLC of KinEASE assay kit) are quantified by its capture by phosphor-TK-Antibody-Cryptate (Part of KinEASE assay kit) and XL665-labeled Streptavidin (Part 610SAXLG of KinEASE assay kit) followed by measurement of Time-Resolved Fluorescence Resonance Energy Transfer (TR-FRET) signal. On the day of the assay, compounds were solubilized in DMSO and dispensed into a 384-well white Opti-plate (PerkinElmer, catalog #6007290) to generate a 22 point 1:2 titration. Enzyme solution was prepared for each of the tyrosine kinases in 50 mM HEPES, pH 7.4, 5 mM MgCl2 for c-Kit or 10 mM MgCl2 for FLT3, CSFIR, PDGFRa and PDGFRβ, 2 mM MnCl2, 0.01% Brij-35 and 0.01% BSA. Working enzyme concentrations were prepared for c-Kit at 2 nM (2×), PDGFRa and PDGFRß at 10 nM (2×), CSFIR at 2 nM (2×) and FLT3 at 0.4 nM (2×). Five microliters of enzyme dilution of each tyrosine kinase were added to their respective 384-well white Opti-plate pre-dispensed with compound and allowed to incubate for 1 h at rt. Utilizing the same enzyme buffer recipe, 2x substrate mixes were prepared for each enzyme as follows: For c-Kit, 1.6 μM (2×) TK substrate and 16 μM (2×) ATP (Promega, catalog #V915). For PDGFRα, 3.2 μM TK substrate and 1 μM ATP. For PDGFRβ, 3.2 μM TK substrate and 40 μM ATP. For CSFIR, […] TK substrate and 20 μM ATP. For FLT3, 3.2 μM TK substrate and 100 μM ATP. Reactions were initiated by addition of 5 μL of the respective 2x substrate mix to each well of the plates containing the respective tyrosine kinase enzymes and were allowed to proceed for 120 minutes at rt, except for FLT3, the reaction time is 45 min. Following the reaction, 10 μL of detection mix consisting of 0.2 μM (2×) of Streptavidin-XL665 and 2 μM (2×) of TK-Antibody-Cryptate prepared in detection buffer (Part 62SDBRDF of KinEASE assay kit) was added and then allowed to incubate for 60 min. The TR-FRET signal was quantified by measuring the ratio of emission at 665 nm to 620 nm after excitation at 320 nm by reading on a PerkinElmer Envision multimode reader. Compound potencies (IC50 values) were determined using a standard 4-parameter non-linear regression fit.

[2] = target: CSF1R (Homo sapiens (Human), UniProt P07333); experiment: Inhibition of CSF1R kinase activity (HTRF KinEASE-TK)
Procedure: as §1, §2

[3] = target: PDGFRβ (Homo sapiens (Human), UniProt P09619); experiment: Inhibition of PDGFRβ kinase activity (HTRF KinEASE-TK)
Procedure: as §1, §2

[4] = target: c-Kit (Homo sapiens (Human), UniProt P10721); experiment: Inhibition of c-Kit kinase activity (HTRF KinEASE-TK); assay type: biochemical
Procedure: as §1, §2

Chain of PDGFRβ (P09619 33-1106): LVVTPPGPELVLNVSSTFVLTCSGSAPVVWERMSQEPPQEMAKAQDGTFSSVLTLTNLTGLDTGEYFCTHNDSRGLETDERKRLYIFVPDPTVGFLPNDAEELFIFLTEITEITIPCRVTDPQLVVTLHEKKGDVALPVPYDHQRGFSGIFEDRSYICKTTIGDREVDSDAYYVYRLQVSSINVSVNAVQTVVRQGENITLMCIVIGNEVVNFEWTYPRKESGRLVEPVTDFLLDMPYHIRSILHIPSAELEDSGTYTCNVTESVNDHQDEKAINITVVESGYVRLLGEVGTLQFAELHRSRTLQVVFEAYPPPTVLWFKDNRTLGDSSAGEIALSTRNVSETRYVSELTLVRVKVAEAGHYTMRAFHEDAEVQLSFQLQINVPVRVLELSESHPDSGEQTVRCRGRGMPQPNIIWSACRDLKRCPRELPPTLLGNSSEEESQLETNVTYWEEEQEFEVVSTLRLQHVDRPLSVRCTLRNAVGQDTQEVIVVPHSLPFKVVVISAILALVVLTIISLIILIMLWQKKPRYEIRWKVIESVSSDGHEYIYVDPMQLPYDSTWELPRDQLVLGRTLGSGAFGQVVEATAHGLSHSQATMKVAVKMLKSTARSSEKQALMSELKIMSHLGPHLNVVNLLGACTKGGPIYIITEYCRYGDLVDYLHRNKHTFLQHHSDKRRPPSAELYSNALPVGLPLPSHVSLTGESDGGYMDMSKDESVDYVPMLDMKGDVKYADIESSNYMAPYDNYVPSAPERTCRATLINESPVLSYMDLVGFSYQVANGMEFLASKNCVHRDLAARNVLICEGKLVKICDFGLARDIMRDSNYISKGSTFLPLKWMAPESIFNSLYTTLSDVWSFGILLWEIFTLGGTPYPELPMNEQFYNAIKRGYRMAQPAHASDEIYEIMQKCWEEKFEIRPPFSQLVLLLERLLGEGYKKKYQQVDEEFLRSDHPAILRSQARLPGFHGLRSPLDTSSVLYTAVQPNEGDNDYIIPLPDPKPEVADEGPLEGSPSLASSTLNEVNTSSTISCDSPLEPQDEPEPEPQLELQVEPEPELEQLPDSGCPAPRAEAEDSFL
Chain of CSF1R (P07333 20-972): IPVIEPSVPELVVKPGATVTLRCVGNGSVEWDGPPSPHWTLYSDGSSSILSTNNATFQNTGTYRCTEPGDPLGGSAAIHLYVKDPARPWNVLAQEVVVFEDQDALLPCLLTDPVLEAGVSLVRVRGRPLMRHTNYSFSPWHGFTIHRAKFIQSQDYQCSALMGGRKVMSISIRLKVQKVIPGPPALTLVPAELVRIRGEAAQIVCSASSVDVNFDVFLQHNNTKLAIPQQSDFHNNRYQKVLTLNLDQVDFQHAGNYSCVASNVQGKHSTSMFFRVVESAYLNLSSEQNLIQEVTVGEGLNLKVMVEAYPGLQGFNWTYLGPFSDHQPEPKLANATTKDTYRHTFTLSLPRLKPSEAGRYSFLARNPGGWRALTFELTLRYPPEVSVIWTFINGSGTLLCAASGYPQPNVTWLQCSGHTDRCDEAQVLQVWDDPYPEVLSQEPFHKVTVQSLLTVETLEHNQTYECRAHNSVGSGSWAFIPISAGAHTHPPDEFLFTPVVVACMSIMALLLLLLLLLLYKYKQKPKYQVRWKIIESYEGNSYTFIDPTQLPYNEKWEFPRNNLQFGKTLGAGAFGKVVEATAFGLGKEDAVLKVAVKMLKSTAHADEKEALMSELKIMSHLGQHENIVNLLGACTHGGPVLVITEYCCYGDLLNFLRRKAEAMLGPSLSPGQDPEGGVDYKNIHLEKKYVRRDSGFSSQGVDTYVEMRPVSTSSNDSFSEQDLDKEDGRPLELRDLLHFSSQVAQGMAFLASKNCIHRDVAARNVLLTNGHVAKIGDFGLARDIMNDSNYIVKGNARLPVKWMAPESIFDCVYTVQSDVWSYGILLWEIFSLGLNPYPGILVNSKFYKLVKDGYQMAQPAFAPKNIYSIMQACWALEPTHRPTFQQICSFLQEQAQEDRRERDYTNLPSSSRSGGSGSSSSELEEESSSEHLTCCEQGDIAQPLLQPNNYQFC
Chain of c-Kit (P10721 26-976): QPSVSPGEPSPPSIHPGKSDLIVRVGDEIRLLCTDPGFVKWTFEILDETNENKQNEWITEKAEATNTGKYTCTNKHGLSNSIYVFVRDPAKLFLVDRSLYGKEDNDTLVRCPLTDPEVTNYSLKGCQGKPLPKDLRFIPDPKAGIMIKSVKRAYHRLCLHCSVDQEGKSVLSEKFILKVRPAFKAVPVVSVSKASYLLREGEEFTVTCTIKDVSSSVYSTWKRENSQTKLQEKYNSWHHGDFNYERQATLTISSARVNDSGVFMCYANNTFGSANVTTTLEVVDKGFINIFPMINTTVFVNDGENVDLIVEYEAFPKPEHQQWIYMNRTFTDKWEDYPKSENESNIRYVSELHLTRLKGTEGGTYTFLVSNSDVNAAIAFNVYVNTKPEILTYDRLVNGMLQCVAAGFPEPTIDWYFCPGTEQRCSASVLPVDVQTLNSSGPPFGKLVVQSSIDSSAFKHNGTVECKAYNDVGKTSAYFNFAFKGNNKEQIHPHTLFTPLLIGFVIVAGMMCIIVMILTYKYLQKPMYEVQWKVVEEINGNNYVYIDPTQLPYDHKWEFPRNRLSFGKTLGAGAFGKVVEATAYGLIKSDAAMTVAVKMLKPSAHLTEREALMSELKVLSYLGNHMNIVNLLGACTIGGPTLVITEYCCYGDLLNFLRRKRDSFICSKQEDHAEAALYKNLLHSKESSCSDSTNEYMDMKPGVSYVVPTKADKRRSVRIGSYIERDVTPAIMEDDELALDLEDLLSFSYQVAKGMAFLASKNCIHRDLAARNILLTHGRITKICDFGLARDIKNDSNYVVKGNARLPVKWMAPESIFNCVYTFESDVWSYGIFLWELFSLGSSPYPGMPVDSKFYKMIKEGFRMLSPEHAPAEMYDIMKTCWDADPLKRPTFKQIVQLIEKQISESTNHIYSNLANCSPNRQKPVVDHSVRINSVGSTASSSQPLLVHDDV
Chain of PDGFRα (P16234 24-1089): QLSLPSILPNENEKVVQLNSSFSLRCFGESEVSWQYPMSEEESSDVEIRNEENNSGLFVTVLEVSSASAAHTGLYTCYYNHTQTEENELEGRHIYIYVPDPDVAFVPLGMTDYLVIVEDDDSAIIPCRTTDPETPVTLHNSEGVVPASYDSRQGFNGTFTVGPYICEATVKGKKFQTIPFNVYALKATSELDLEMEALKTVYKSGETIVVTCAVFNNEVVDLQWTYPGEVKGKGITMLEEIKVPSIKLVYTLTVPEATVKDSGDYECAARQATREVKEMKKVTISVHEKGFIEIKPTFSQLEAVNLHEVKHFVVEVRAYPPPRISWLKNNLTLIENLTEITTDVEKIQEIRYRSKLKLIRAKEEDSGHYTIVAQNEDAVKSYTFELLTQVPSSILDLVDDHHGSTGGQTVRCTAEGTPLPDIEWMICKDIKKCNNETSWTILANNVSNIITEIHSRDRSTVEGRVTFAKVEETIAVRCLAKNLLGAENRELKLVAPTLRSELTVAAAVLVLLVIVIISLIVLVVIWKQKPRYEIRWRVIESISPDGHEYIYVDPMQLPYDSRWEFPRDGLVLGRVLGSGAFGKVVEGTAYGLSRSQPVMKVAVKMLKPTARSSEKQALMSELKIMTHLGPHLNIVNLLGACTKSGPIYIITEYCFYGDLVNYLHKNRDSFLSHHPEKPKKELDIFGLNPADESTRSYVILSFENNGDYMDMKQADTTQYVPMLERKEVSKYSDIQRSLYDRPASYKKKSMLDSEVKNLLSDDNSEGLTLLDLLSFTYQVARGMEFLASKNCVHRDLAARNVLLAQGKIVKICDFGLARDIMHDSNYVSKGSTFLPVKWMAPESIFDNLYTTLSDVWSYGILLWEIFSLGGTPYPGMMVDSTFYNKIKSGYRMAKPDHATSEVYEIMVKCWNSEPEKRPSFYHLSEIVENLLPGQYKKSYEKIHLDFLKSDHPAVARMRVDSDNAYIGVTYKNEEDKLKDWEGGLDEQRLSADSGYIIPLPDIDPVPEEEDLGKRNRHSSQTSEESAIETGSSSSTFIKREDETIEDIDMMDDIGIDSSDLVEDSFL

| IC50 [1] [nM] | IC50 [2] [nM] | IC50 [3] [nM] | IC50 [4] [nM] | Compound |
| --- | --- | --- | --- | --- |
| > 1000 | > 1000 | > 1000 | 100 to 1000 | Cc1cc(F)c(C(=O)Nc2ccc(OC3CC3)cn2)cc1NC(=O)c1cnc(C2CC2)s1 [Example 60, 2-Cyclopropyl-N-[5-[(5-cyclopropyloxypyridin-2-yl)carbamoyl]-4-fluoro-2-methylphenyl]-1,3-thiazole-5-carboxamide] |
| > 1000 | > 1000 | > 1000 | < 100 | Cc1cc(F)c(C(=O)Nc2ccc(OC3CC3)cn2)cc1NC(=O)c1cncs1 [Example 169, N-[5-[(5-Cyclopropyloxypyridin-2-yl)carbamoyl]-4-fluoro-2-methylphenyl]-1,3-thiazole-5-carboxamide] |
| > 1000 | > 1000 | > 1000 | 100 to 1000 | Cc1ncc(C(=O)Nc2cc(C(=O)NCC3(F)CCC3)c(F)cc2C)s1 [Example 68, N-[4-Fluoro-5-[(1-fluorocyclobutyl)methylcarbamoyl]-2-methylphenyl]-2-methyl-1,3-thiazole-5-carboxamide] |
| > 1000 | > 1000 | > 1000 | 100 to 1000 | Cc1cc(F)c(C(=O)Nc2ccc(OC3CC3)cn2)cc1NC(=O)c1cnc(NC(=O)C(C)(C)O)s1 [Example 109, N-[5-[(5-cyclopropyloxypyridin-2-yl)carbamoyl]-4-fluoro-2-methylphenyl]-2-[(2-hydroxy-2-methylpropanoyl)amino]-1,3-thiazole-5-carboxamide] |
| > 1000 | > 1000 | > 1000 | 100 to 1000 | CCc1cc(F)c(C(=O)Nc2ccc(OC3CC3)cn2)cc1NC(=O)c1cnc(N)s1 [Example 237, 2-Amino-N-[5-[(5-cyclopropyloxypyridin-2-yl)carbamoyl]-2-ethyl-4-fluorophenyl]-1,3-thiazole-5-carboxamide] |
| > 1000 | 100 to 1000 | 100 to 1000 | < 100 | Cc1cc(F)c(C(=O)Nc2ccc(CN3CCN(C)CC3)cn2)cc1NC(=O)c1cnc(N)s1 [Example 247, 2-Amino-N-[4-fluoro-2-methyl-5-[[5-[(4-methylpiperazin-1-yl)methyl]pyridin-2-yl]carbamoyl]phenyl]-1,3-thiazole-5-carboxamide] |
| > 1000 | 100 to 1000 | 100 to 1000 | < 100 | Cc1cc(F)c(C(=O)Nc2ccc(C3(C#N)CC3)nn2)cc1NC(=O)c1cnc(N)s1 [Example 119, 2-Amino-N-[5-[[6-(1-cyanocyclopropyl)pyridazin-3-yl]carbamoyl]-4-fluoro-2-methylphenyl]-1,3-thiazole-5-carboxamide] |
| > 1000 | > 1000 | > 1000 | < 100 | Cc1ncc(C(=O)Nc2cc(C(=O)Nc3ccc(OCC4CC4)cn3)c(F)cc2C)s1 [Example 65, N-[5-[[5-(cyclopropylmethoxy)pyridin-2-yl]carbamoyl]-4-fluoro-2-methylphenyl]-2-methyl-1,3-thiazole-5-carboxamide] |
| > 1000 | > 1000 | > 1000 | < 100 | Cc1cc(F)c(C(=O)Nc2ccc(OC3COC4(CC4)C3)cn2)cc1NC(=O)c1cnc(N)s1 (stereo not drawn) [Example 199, 2-Amino-N-[4-fluoro-2-methyl-5-[[5-(4-oxaspiro[2.4]heptan-6-yloxy)pyridin-2-yl]carbamoyl]phenyl]-1,3-thiazole-5-carboxamide] |
| > 1000 | > 1000 | > 1000 | < 100 | Cc1cc(F)c(C(=O)NC2CN(C(=O)C3CC3)C2)cc1NC(=O)c1cnc(N)s1 [Example 121, 2-Amino-N-[5-[[1-(cyclopropanecarbonyl)azetidin-3-yl]carbamoyl]-4-fluoro-2-methylphenyl]-1,3-thiazole-5-carboxamide] |
| > 1000 | > 1000 | > 1000 | < 100 | Cc1cc(F)c(C(=O)Nc2cc3n(n2)CCN(C)C3)cc1NC(=O)c1cnc(N)s1 [Example 180, 2-Amino-N-[4-fluoro-2-methyl-5-[(5-methyl-6,7-dihydro-4H-pyrazolo[1,5-a]pyrazin-2-yl)carbamoyl]phenyl]-1,3-thiazole-5-carboxamide] |
| > 1000 | > 1000 | > 1000 | < 100 | Cc1cc(F)c(C(=O)Nc2ccccc2F)cc1NC(=O)c1cnc(N)s1 [Example 234, 2-Amino-N-[4-fluoro-5-[(2-fluorophenyl)carbamoyl]-2-methylphenyl]-1,3-thiazole-5-carboxamide] |
| > 1000 | 100 to 1000 | 100 to 1000 | < 100 | Cc1cc(F)c(C(=O)Nc2ccc(S(C)(=O)=O)cn2)cc1NC(=O)c1cnc(N)s1 [Example 116, 2-Amino-N-[4-fluoro-2-methyl-5-[(5-methylsulfonylpyridin-2-yl)carbamoyl]phenyl]-1,3-thiazole-5-carboxamide] |
| > 1000 | > 1000 | > 1000 | < 100 | Cc1cc(F)c(C(=O)NC2CN(c3ncccn3)C2)cc1NC(=O)c1cnc(N)s1 [Example 125, 2-Amino-N-[4-fluoro-2-methyl-5-[(1-pyrimidin-2-ylazetidin-3-yl)carbamoyl]phenyl]-1,3-thiazole-5-carboxamide] |
| > 1000 | > 1000 | > 1000 | < 100 | Cc1ncc(C(=O)Nc2cc(C(=O)Nc3ccc(OCC(F)(F)F)cn3)c(F)cc2C)s1 [Example 41, N-[4-fluoro-2-methyl-5-[[5-(2,2,2-trifluoroethoxy)pyridin-2-yl]carbamoyl]phenyl]-2-methyl-1,3-thiazole-5-carboxamide] |
| > 1000 | 100 to 1000 | > 1000 | < 100 | Cc1cc(F)c(C(=O)Nc2cccc(F)c2)cc1NC(=O)c1cnc(N)s1 [Example 232, 2-Amino-N-[4-fluoro-5-[(3-fluorophenyl)carbamoyl]-2-methylphenyl]-1,3-thiazole-5-carboxamide] |
| 100 to 1000 | 100 to 1000 | 100 to 1000 | < 100 | COc1ccc(NC(=O)c2cc(NC(=O)c3cnc(N)s3)c(C)cc2F)c(F)c1 [Example 228, 2-Amino-N-[4-fluoro-5-[(2-fluoro-4-methoxyphenyl)carbamoyl]-2-methylphenyl]-1,3-thiazole-5-carboxamide] |
| > 1000 | > 1000 | > 1000 | 100 to 1000 | Cc1cc(F)c(C(=O)Nc2nc(C)n(C)n2)cc1NC(=O)c1cnc(N)s1 [Example 173, 2-Amino-N-[5-[(1,5-dimethyl-1,2,4-triazol-3-yl)carbamoyl]-4-fluoro-2-methylphenyl]-1,3-thiazole-5-carboxamide] |
| > 1000 | > 1000 | > 1000 | < 100 | Cc1ncc(C(=O)Nc2cc(C(=O)Nc3ccc(C4CC4)nn3)c(F)cc2C)s1 [Example 35, N-[5-[(6-cyclopropylpyridazin-3-yl)carbamoyl]-4-fluoro-2-methylphenyl]-2-methyl-1,3-thiazole-5-carboxamide] |
| > 1000 | > 1000 | > 1000 | < 100 | Cc1ncc(C(=O)Nc2cc(C(=O)NCc3ccn(C(C)C)n3)c(F)cc2C)s1 [Example 79, N-[4-fluoro-2-methyl-5-[(1-propan-2-ylpyrazol-3-yl)methylcarbamoyl]phenyl]-2-methyl-1,3-thiazole-5-carboxamide] |
| 100 to 1000 | 100 to 1000 | 100 to 1000 | < 100 | Cc1cc(F)c(C(=O)Nc2cc(C3CC3)[nH]n2)cc1NC(=O)c1cnc(N)s1 [Example 177, 2-Amino-N-[5-[(5-cyclopropyl-1H-pyrazol-3-yl)carbamoyl]-4-fluoro-2-methylphenyl]-1,3-thiazole-5-carboxamide] |

Reference: US20250145606A1 (Arcus Biosciences, Inc., priority 2023, published 2025)
